Measurements from patent US11654198B2, “Application of combination of polyethylene glycol and local anesthetic in non-narcotic analgesia” (JENKEM TECHNOLOGY CO., LTD. (TIANJIN), priority 2016, dated 2023).

What was measured:
Assay type in all cases: in vivo
SD rats [1] = experiment: Hot plate paw withdrawal time, rat plantar incision model (Example 31)
Experimental: (§1) After SD rats inhale anesthesia (isoflurane), an incision of about 1 cm in length from the proximal end of the pelma to the toe is made: after the skin and fascia are cut, the plantar muscle is picked up with an ophthalmic forceps and cut longitudinally (maintaining the starting and ending point and attachment of muscles); pressing is carried out for hemostasis, physiological saline and test drugs are injected into the muscles of animal's legs, and then the pain threshold detection is performed by the hot plate method. Within 24 hours after the model is successful, the rats develop significant hyperalgesia. Qualified rats are randomly divided into 5 groups, 6 rats in each group, which are labeled as groups G1, G2, G3, G4 and G5, respectively. The plantar subcutaneous injection method for administration is used, and the grouping information of the experimental animals is shown in Table 8.
(§2) Sensory block (hot plate paw withdrawal time): The sensory block of the rat is examined by a hot plate method, and the hot plate is heated to (56±1)° C., and one of the hind paws of the rat is placed on the hot plate, the other hind paw is in the laboratory room temperature condition, and the tested paw withdrawal time is observed and recorded. The average value of two to three times measured is recorded as a pain threshold. In order to avoid the damage of the experimental animal body, if the rat has no paw withdrawal in the hot plate experiment for more than 15 s, the paws should be removed from the hot plate, and the experimental result is recorded as 15 s. The time point for determining the paw withdrawal time of the hot plate is before administration, and 0.5 h, 1 h, 2 h, 4 h, 6 h, 8 h, 12 h, and 24 h after administration.

SD rats [2] = experiment: Hot plate paw withdrawal time, rat sciatica model, intervertebral disc compression (SNL) (Example 32)
Description: Intervertebral disc compression (SNL): This model is a pathological form that simulates clinical disc herniation. The specific method is to remove the autogenous caudal intervertebral disc tissue (annulus fibrosus and nucleus pulposus) form the rats and place the caudal intervertebral disc tissue between the proximal nerve root of the L5 dorsal root ganglion and the lower vertebral body to directly compress the L5 nerve root, wherein damage to the L5 nerve root or dorsal root ganglion should be avoided during the operation. 3 to 15 days after the model is successful, rats develop significant hyperalgesia, so the administration time we chose is between 3 days and 15 days.
Qualified rats are randomly divided into 5 groups, 6 rats in each group, which are labeled as groups G1, G2, G3, G4 and G5, respectively. Administration by intramuscular injection around sciatic nerve is adopted, and the grouping information of the experimental animals is shown in Table 11.
as §2, with “determining the withdrawal time” for “determining the paw withdrawal time”

SD rats [3] = experiment: Motor block four-level score, rat plantar incision model (Example 31); set-up: key to motor function score: 1 = normal paw movement to 4 = complete loss of movement with gait defect; conditions: bupivacaine 8, conjugate 10/11/12 32/24/48 mg/kg
Experimental: as §1
Motor block (four-level score): The exercise condition of each group of rats is evaluated by the motor block four-level scoring method. The scoring criteria are: paws can be dorsiflexed, stretched, valgus and other normal exercises, scored by 1 point; paws can be dorsiflexed, bendable or after the adduction, although the paws can be stretched, the stretching ability is weakened, scored by 2 points; the paws can perform dorsiflexion, but no longer has the ability to stretch, scored by 3 points; the paws completely lose the ability of dorsiflexion, curling and stretching, and the rats produce a gait defect, scored by 4 points. The time point for measuring the motor block score is before administration, and 0.5 h, 1 h, 2 h, 4 h, 6 h, 8 h, 12 h, and 24 h after administration.

[4] = 0 h (after surgery, before administration), bupivacaine 8, conjugate 10/11/12 32/24/48 mg/kg

SMILES: CCCCN1CCCCC1C(=O)Nc1c(C)cccc1C (centres unmarked) [bupivacaine]
- hot plate paw withdrawal time (SD rats [1]; [4]): 1.02 s
- hot plate paw withdrawal time (SD rats [1]; 0.5 h after plantar subcutaneous injection, bupivacaine 8, conjugate 10/11/12 32/24/48 mg/kg): 7.21 s
- hot plate paw withdrawal time (SD rats [1]; 1 h after plantar subcutaneous injection, bupivacaine 8, conjugate 10/11/12 32/24/48 mg/kg): 6.91 s
- hot plate paw withdrawal time (SD rats [1]; 2 h after plantar subcutaneous injection, bupivacaine 8, conjugate 10/11/12 32/24/48 mg/kg): 1.30 s
- hot plate paw withdrawal time (SD rats [1]; 4 h after plantar subcutaneous injection, bupivacaine 8, conjugate 10/11/12 32/24/48 mg/kg): 1.51 s
- hot plate paw withdrawal time (SD rats [1]; 6 h after plantar subcutaneous injection, bupivacaine 8, conjugate 10/11/12 32/24/48 mg/kg): 1.32 s
- hot plate paw withdrawal time (SD rats [1]; 8 h after plantar subcutaneous injection, bupivacaine 8, conjugate 10/11/12 32/24/48 mg/kg): 2.41 s
- hot plate paw withdrawal time (SD rats [1]; 12 h after plantar subcutaneous injection, bupivacaine 8, conjugate 10/11/12 32/24/48 mg/kg): 1.41 s
- hot plate paw withdrawal time (SD rats [1]; 24 h after plantar subcutaneous injection, bupivacaine 8, conjugate 10/11/12 32/24/48 mg/kg): 1.45 s
- hot plate paw withdrawal time (SD rats [1]; base value before surgery, bupivacaine 8, conjugate 10/11/12 32/24/48 mg/kg (as bupivacaine)): 4.70 s
- hot plate paw withdrawal time (SD rats [2]; [4]): 2.28 s
- hot plate paw withdrawal time (SD rats [2]; 0.5 h after intramuscular injection around sciatic nerve, bupivacaine 8, conjugate 10/11/12 32/24/48 mg/kg): 7.39 s
- hot plate paw withdrawal time (SD rats [2]; 1 h after intramuscular injection around sciatic nerve, bupivacaine 8, conjugate 10/11/12 32/24/48 mg/kg): 9.22 s
- hot plate paw withdrawal time (SD rats [2]; 2 h after intramuscular injection around sciatic nerve, bupivacaine 8, conjugate 10/11/12 32/24/48 mg/kg): 2.81 s
- hot plate paw withdrawal time (SD rats [2]; 4 h after intramuscular injection around sciatic nerve, bupivacaine 8, conjugate 10/11/12 32/24/48 mg/kg): 1.89 s
- hot plate paw withdrawal time (SD rats [2]; 6 h after intramuscular injection around sciatic nerve, bupivacaine 8, conjugate 10/11/12 32/24/48 mg/kg): 1.78 s
- hot plate paw withdrawal time (SD rats [2]; 8 h after intramuscular injection around sciatic nerve, bupivacaine 8, conjugate 10/11/12 32/24/48 mg/kg): 1.95 s
- hot plate paw withdrawal time (SD rats [2]; 12 h after intramuscular injection around sciatic nerve, bupivacaine 8, conjugate 10/11/12 32/24/48 mg/kg): 2.43 s
- hot plate paw withdrawal time (SD rats [2]; 24 h after intramuscular injection around sciatic nerve, bupivacaine 8, conjugate 10/11/12 32/24/48 mg/kg): 1.72 s
- hot plate paw withdrawal time (SD rats [2]; before surgery, bupivacaine 8, conjugate 10/11/12 32/24/48 mg/kg (as bupivacaine)): 5.40 s
- motor function score (SD rats [3]; 0 h (before administration)): 1 ± 0
- motor function score (SD rats [3]; 0.5 h): 1 ± 0
- motor function score (SD rats [3]; 1 h): 1.75 ± 0.5
- motor function score (SD rats [3]; 2 h): 1.75 ± 0.5
- motor function score (SD rats [3]; 4 h): 1.75 ± 0.5
- motor function score (SD rats [3]; 6 h): 1.75 ± 0.5
- motor function score (SD rats [3]; 8 h): 1.75 ± 0.5
- motor function score (SD rats [3]; 12 h): 1 ± 0
- motor function score (SD rats [3]; 24 h): 1 ± 0
